The values below come from ChEMBL document CHEMBL1144479, “Synthesis and antimicrobial studies on novel chloro-fluorine containing hydroxy pyrazolines” (2007).

SMILES strings stand for the structures. ≈ marks a conversion by molar mass, not a printed value. A value given as a limit tells only on which side of the number the result lay.

One assay has as its system Talaromyces marneffei. In words: Antifungal activity against Penicillium marneffei after 3 to 4 days by serial plate dilution method. Type of assay: functional. To be noted: for MIC: Talaromyces marneffei.
A further assay has as its system Aspergillus flavus. Briefly: Antifungal activity against Aspergillus flavus NCIM no. 524 after 3 to 4 days by serial plate dilution method. Type of assay: functional. To be noted: for MIC: Aspergillus flavus.
The test system of a further assay is Aspergillus fumigatus. Briefly: Antifungal activity against Aspergillus fumigatus NCIM no. 902 after 3 to 4 days by serial plate dilution method. The assay is classed as functional. To be noted: for MIC: Aspergillus fumigatus.
The next assay concerns Staphylococcus aureus. In words: microbe, parasite or virus in culture. Type of assay: functional, ATCC 25923. As to conditions: for MIC: Staphylococcus aureus, ATCC 25923, 24 h.
Another assay concerns Candida albicans. Briefly: Antifungal activity against Candida albicans NCIM no. 300 after 3 to 4 days by serial plate dilution method. As to conditions: for MIC: Candida albicans. The assay is classed as functional.
For another assay, the system named is Trichophyton benhamiae. Briefly: Antifungal activity against Trichophyton mentagrophytes after 3 to 4 days by serial plate dilution method. Type of assay: functional, Arthroderma benhamiae. As to conditions: for MIC: Trichophyton benhamiae.
A further assay concerns Escherichia coli. Briefly: microbe, parasite or virus in culture. The assay is classed as functional, ATCC 25922. As to conditions: for MIC: Escherichia coli, ATCC 25922, 24 h.
The test system of another assay is Streptococcus pyogenes. In words: Antibacterial activity against Streptococcus pyogenes after 24 hrs by disc diffusion method. The assay is classed as functional. As to conditions: for MIC: Streptococcus pyogenes, 24 h.
For a further assay, the system named is Klebsiella pneumoniae. Briefly: Antibacterial activity against Klebsiella pneumoniae after 24 hrs by disc diffusion method. The assay is classed as functional. As to conditions: for MIC: Klebsiella pneumoniae, 24 h. A general note: A growth-free zone around the sample is the usual read-out of agar diffusion tests.
For a further assay, the system named is Pseudomonas aeruginosa. Briefly: microbe, parasite or virus in culture. As to conditions: for MIC: Pseudomonas aeruginosa, ATCC 27853, 24 h. The assay is classed as functional, ATCC 27853.

Description for Escherichia coli: Antibacterial activity against Escherichia coli ATCC 25922 after 24 hrs by disc diffusion method
Description for Pseudomonas aeruginosa: Antibacterial activity against Pseudomonas aeruginosa ATCC 27853 after 24 hrs by disc diffusion method
Description for Staphylococcus aureus: Antibacterial activity against Staphylococcus aureus ATCC 25923 after 24 hrs by disc diffusion method

With `COc1ccc(C2=NN(C(=O)COc3ccc(C)cc3)C(O)(c3cc(F)c(Cl)cc3Cl)C2)cc1OC` (stereo not given), the MIC is over 100 µg/mL in the assay with Talaromyces marneffei; 25 µg/mL (≈ 46.9 µM) against Aspergillus flavus; over 100 µg/mL against Aspergillus fumigatus; over 100 µg/mL against Staphylococcus aureus; over 100 µg/mL in the assay on Candida albicans; 6.25 µg/mL (≈ 11.7 µM) in the assay on Trichophyton benhamiae. Moreover, the MIC in the assay on Escherichia coli is 12.5 µg/mL (≈ 23.4 µM); with Streptococcus pyogenes it was over 100 µg/mL; against Klebsiella pneumoniae it was over 100 µg/mL; in the assay with Pseudomonas aeruginosa, 6.25 µg/mL (≈ 11.7 µM). Moreover, the “inhibition zone (IZ)” value is 10 mm with Aspergillus flavus, 23 mm in the assay with Trichophyton benhamiae, 16 mm with Escherichia coli and 23 mm with Pseudomonas aeruginosa.

Take `Cc1ccc(OCC(=O)N2N=C(c3ccc(Cl)cc3)CC2(O)c2cc(F)c(Cl)cc2Cl)cc1` (stereo not given): the “inhibition zone (IZ)” value in the assay on Talaromyces marneffei came out at 17 mm; in the assay on Aspergillus flavus it was 15 mm; in the assay with Aspergillus fumigatus, 19 mm; in the assay with Staphylococcus aureus, 19 mm; in the assay on Candida albicans it was 19 mm; in the assay on Trichophyton benhamiae, 20 mm. Besides, the “inhibition zone (IZ)” value with Escherichia coli came out at 17 mm; in the assay on Streptococcus pyogenes, 18 mm; with Klebsiella pneumoniae, 18 mm; with Pseudomonas aeruginosa, 24 mm. In addition, the MIC stood at 6.25 µg/mL (≈ 12.3 µM) in the assay with Talaromyces marneffei; 12.5 µg/mL (≈ 24.6 µM) against Aspergillus flavus; 6.25 µg/mL (≈ 12.3 µM) against Aspergillus fumigatus; 6.25 µg/mL (≈ 12.3 µM) with Staphylococcus aureus; 12.5 µg/mL (≈ 24.6 µM) against Candida albicans; 6.25 µg/mL (≈ 12.3 µM) against Trichophyton benhamiae. Also, the MIC against Escherichia coli stood at 12.5 µg/mL (≈ 24.6 µM); against Streptococcus pyogenes it was 12.5 µg/mL (≈ 24.6 µM); against Klebsiella pneumoniae it was 6.25 µg/mL (≈ 12.3 µM); against Pseudomonas aeruginosa it was 6.25 µg/mL (≈ 12.3 µM).

With `Cc1ccc(OCC(=O)N2N=C(c3ccc(Cl)cc3Cl)CC2(O)c2cc(F)c(Cl)cc2Cl)cc1` (stereo not given), the “inhibition zone (IZ)” value with Talaromyces marneffei is recorded as 18 mm; in the assay with Aspergillus flavus, 16 mm; in the assay on Aspergillus fumigatus, 20 mm; in the assay on Staphylococcus aureus it was 19 mm; in the assay on Candida albicans, 19 mm; with Trichophyton benhamiae, 18 mm. The “inhibition zone (IZ)” value in the assay with Escherichia coli worked out at 15 mm; in the assay with Streptococcus pyogenes it was 18 mm; in the assay on Klebsiella pneumoniae, 18 mm; in the assay on Pseudomonas aeruginosa, 24 mm. The MIC in the assay with Talaromyces marneffei turned out to be 6.25 µg/mL (≈ 11.5 µM); with Aspergillus flavus, 12.5 µg/mL (≈ 23.1 µM); against Aspergillus fumigatus it was 6.25 µg/mL (≈ 11.5 µM); with Staphylococcus aureus, 6.25 µg/mL (≈ 11.5 µM); with Candida albicans, 6.25 µg/mL (≈ 11.5 µM); against Trichophyton benhamiae it was 6.25 µg/mL (≈ 11.5 µM). Also, the MIC with Escherichia coli was found to be 12.5 µg/mL (≈ 23.1 µM); against Streptococcus pyogenes, 12.5 µg/mL (≈ 23.1 µM); against Klebsiella pneumoniae, 6.25 µg/mL (≈ 11.5 µM); against Pseudomonas aeruginosa, 6.25 µg/mL (≈ 11.5 µM).

Turning to `O=C(COc1ccc(Cl)cc1Cl)N1N=C(c2ccc(Cl)cc2Cl)CC1(O)c1cc(F)c(Cl)cc1Cl` (stereo not given), the MIC with Talaromyces marneffei is over 100 µg/mL; in the assay on Aspergillus flavus, 25 µg/mL (≈ 41.9 µM); in the assay on Aspergillus fumigatus, over 100 µg/mL; with Staphylococcus aureus it was over 100 µg/mL; with Candida albicans, over 100 µg/mL; against Trichophyton benhamiae it was 25 µg/mL (≈ 41.9 µM). The MIC in the assay with Escherichia coli was 12.5 µg/mL (≈ 20.9 µM); against Streptococcus pyogenes, over 100 µg/mL; in the assay with Klebsiella pneumoniae, over 100 µg/mL; in the assay on Pseudomonas aeruginosa, 25 µg/mL (≈ 41.9 µM). The “inhibition zone (IZ)” value came out at 12 mm with Aspergillus flavus, 10 mm in the assay on Trichophyton benhamiae, 17 mm in the assay with Escherichia coli and 10 mm in the assay with Pseudomonas aeruginosa.

Consider `O=C(COc1ccc(Cl)cc1)N1N=C(c2ccccc2)CC1(O)c1cc(F)c(Cl)cc1Cl` (stereo not given), for which the “inhibition zone (IZ)” value in the assay on Talaromyces marneffei is 10 mm; in the assay with Aspergillus flavus, 9 mm; in the assay on Aspergillus fumigatus, 14 mm; in the assay with Staphylococcus aureus, 14 mm; in the assay on Trichophyton benhamiae it was 7 mm; in the assay on Klebsiella pneumoniae, 10 mm. For the same molecule, the MIC was 25 µg/mL (≈ 50.6 µM) in the assay with Talaromyces marneffei; 25 µg/mL (≈ 50.6 µM) in the assay on Aspergillus flavus; 12.5 µg/mL (≈ 25.3 µM) in the assay with Aspergillus fumigatus; 12.5 µg/mL (≈ 25.3 µM) against Staphylococcus aureus; over 100 µg/mL in the assay on Candida albicans; 25 µg/mL (≈ 50.6 µM) against Trichophyton benhamiae. In addition, the MIC was over 100 µg/mL against Escherichia coli, over 100 µg/mL with Streptococcus pyogenes, 25 µg/mL (≈ 50.6 µM) with Klebsiella pneumoniae and over 100 µg/mL in the assay with Pseudomonas aeruginosa.

In the case of `O=C(COc1ccc(Cl)cc1)N1N=C(c2ccc(Cl)cc2Cl)CC1(O)c1cc(F)c(Cl)cc1Cl` (stereo not given), the “inhibition zone (IZ)” value with Talaromyces marneffei is 10 mm. The MIC against Talaromyces marneffei is 25 µg/mL (≈ 44.4 µM); against Aspergillus flavus it was over 100 µg/mL; in the assay on Aspergillus fumigatus it was over 100 µg/mL; with Staphylococcus aureus it was over 100 µg/mL; against Candida albicans, over 100 µg/mL; in the assay on Escherichia coli, over 100 µg/mL. The MIC against Streptococcus pyogenes, against Klebsiella pneumoniae and against Pseudomonas aeruginosa was over 100 µg/mL each time.

Consider `COc1ccc(C2=NN(C(=O)COc3ccc(Cl)cc3)C(O)(c3cc(F)c(Cl)cc3Cl)C2)cc1OC` (stereo not given), for which the MIC against Talaromyces marneffei was over 100 µg/mL; in the assay with Aspergillus flavus, 25 µg/mL (≈ 45.1 µM); against Aspergillus fumigatus, over 100 µg/mL; against Staphylococcus aureus, over 100 µg/mL; in the assay with Candida albicans it was 25 µg/mL (≈ 45.1 µM); with Trichophyton benhamiae, over 100 µg/mL. The MIC against Escherichia coli is 25 µg/mL (≈ 45.1 µM); in the assay on Streptococcus pyogenes, 25 µg/mL (≈ 45.1 µM); in the assay with Klebsiella pneumoniae, over 100 µg/mL; in the assay with Pseudomonas aeruginosa, over 100 µg/mL. In addition, the “inhibition zone (IZ)” value is given as 9 mm in the assay with Aspergillus flavus, 10 mm with Candida albicans, 8 mm in the assay with Escherichia coli and 10 mm in the assay with Streptococcus pyogenes.

`O=C(COc1ccc(Cl)cc1Cl)N1N=C(c2ccc(Cl)cc2)CC1(O)c1cc(F)c(Cl)cc1Cl` (stereo not given): the MIC was over 100 µg/mL with Talaromyces marneffei; 25 µg/mL (≈ 44.4 µM) in the assay with Aspergillus flavus; over 100 µg/mL in the assay on Aspergillus fumigatus; over 100 µg/mL against Staphylococcus aureus; over 100 µg/mL in the assay with Candida albicans; 12.5 µg/mL (≈ 22.2 µM) in the assay with Trichophyton benhamiae. Besides, the MIC is 25 µg/mL (≈ 44.4 µM) against Escherichia coli, over 100 µg/mL against Streptococcus pyogenes, 6.25 µg/mL (≈ 11.1 µM) in the assay on Klebsiella pneumoniae and 6.25 µg/mL (≈ 11.1 µM) against Pseudomonas aeruginosa. The “inhibition zone (IZ)” value in the assay with Aspergillus flavus is 10 mm; with Trichophyton benhamiae, 12 mm; with Escherichia coli, 10 mm; in the assay with Pseudomonas aeruginosa, 23 mm.

On to `O=C(O)c1cn(C2CC2)c2cc(N3CCNCC3)c(F)cc2c1=O` [CIPROFLOXACIN], for which the “inhibition zone (IZ)” value with Staphylococcus aureus was 19 mm; in the assay on Escherichia coli it was 18 mm; in the assay with Streptococcus pyogenes it was 20 mm; in the assay with Klebsiella pneumoniae, 20 mm; in the assay on Pseudomonas aeruginosa, 25 mm. Moreover, the MIC against Escherichia coli came to 12.5 µg/mL (≈ 37.7 µM); against Streptococcus pyogenes, 12.5 µg/mL (≈ 37.7 µM); in the assay with Klebsiella pneumoniae it was 6.25 µg/mL (≈ 18.9 µM).

For `OC(Cn1cncn1)(Cn1cncn1)c1ccc(F)cc1F` [FLUCONAZOLE], the “inhibition zone (IZ)” value in the assay with Talaromyces marneffei amounted to 21 mm; in the assay on Aspergillus flavus, 18 mm; with Aspergillus fumigatus it was 22 mm; in the assay with Candida albicans, 20 mm; in the assay with Trichophyton benhamiae, 20 mm. The MIC against Talaromyces marneffei was 6.25 µg/mL (≈ 20.4 µM); with Aspergillus flavus, 12.5 µg/mL (≈ 40.8 µM); against Aspergillus fumigatus it was 6.25 µg/mL (≈ 20.4 µM); against Candida albicans it was 6.25 µg/mL (≈ 20.4 µM); against Trichophyton benhamiae, 6.25 µg/mL (≈ 20.4 µM).
